Experimental data published in patent EP0586229A1, “3-Hydroxy-3-(subst-akyl)-pyrrolidines as 5-lipoxygenase inhibitors” (ZENECA LIMITED, priority 1992, dated 1994).
pIC50: −log10 of the molar value.

Key:
5-LO [1] = molecular target: T1, 5-LO (Homo sapiens, UniProt P09917); assay: Test a): in vitro heparinised human blood challenged with calcium ionophore A23187, radioimmunoassay of LTB₄; assay type: cell-based; details: A23187 challenge, read-out: IC₅₀ against LTB₄ in test (a)
T1 construct: incubating a test compound with heparinised human blood, prior to challenge with the calcium ionophore A23187; endogenous in cells; host or cells: heparinised human whole blood (blood cells)
T1 sequence (P09917 1-674): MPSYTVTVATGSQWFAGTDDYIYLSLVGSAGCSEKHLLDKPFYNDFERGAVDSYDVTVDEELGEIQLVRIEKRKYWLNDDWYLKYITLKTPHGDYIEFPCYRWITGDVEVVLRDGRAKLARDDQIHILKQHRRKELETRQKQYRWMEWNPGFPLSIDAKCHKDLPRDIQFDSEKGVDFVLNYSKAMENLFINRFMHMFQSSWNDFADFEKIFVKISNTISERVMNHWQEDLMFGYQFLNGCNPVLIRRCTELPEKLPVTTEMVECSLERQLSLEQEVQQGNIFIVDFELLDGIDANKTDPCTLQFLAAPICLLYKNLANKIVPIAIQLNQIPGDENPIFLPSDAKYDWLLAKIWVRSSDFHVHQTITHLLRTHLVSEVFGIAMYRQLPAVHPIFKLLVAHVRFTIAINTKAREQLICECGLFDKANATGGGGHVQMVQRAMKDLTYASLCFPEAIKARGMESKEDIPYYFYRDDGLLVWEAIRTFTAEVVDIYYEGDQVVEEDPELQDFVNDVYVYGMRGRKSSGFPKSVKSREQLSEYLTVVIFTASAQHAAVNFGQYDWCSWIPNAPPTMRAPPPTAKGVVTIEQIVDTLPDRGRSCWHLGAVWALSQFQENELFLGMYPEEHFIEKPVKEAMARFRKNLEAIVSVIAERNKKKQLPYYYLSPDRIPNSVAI
Source text: As stated previously, the compounds of the formula I are inhibitors of the enzyme 5-LO. […] J. Pharmacol. 1985, 84, 34P) which involve the use of a protein-LTB₄ conjugate produced using the procedure of Young et alia (Prostaglandins, 1983, 26(4), 605-613). The effects of a test compound on the enzyme cyclooxygenase (which is involved in the alternative metabolic pathway for arachidonic acid and gives rise to prostaglandins, thromboxanes and related metabolites) may be measured at the same time using the specific radioimmunoassay for thromboxane B₂(TxB₂) described by Carey and Forder (see above). This test provides an indication of the effects of a test compound against 5-LO and also cyclooxygenase in the presence of blood cells and proteins. It permits the selectivity of the inhibitory effect on 5-LO or cyclooxygenase to be assessed. • b) An ex vivo assay system, which is a variation of test a) above, involving administration to a group of rats of a test compound (usually orally as the suspension produced when a solution of the test compound in dimethylsulphoxide is added to carboxymethylcellulose), blood collection, heparinisation, challenge with A23187 and radioimmunoassay of LTB₄ and TxB₂. This test provides an indication of the bioavailability of a test compound as an inhibitor of 5-LO or cyclooxygenase. • c) An in vivo system involving measuring the effects of a test compound administered orally against the liberation of LTB₄ induced by zymosan within an air pouch generated within the subcutaneous tissue of the back of male rats. The rats are anaesthetised and air pouches are formed by the injection of sterile air (20ml). A further injection of air (10ml) is similarly given after 3 days. At 6 days after the initial air injection the test compound is administered (usually orally as the suspension produced when a solution of the test compound in dimethylsulphoxide is added to hydroxypropylmethylcellulose), followed by the intrapouch injection of zymosan (1ml of a 1% suspension in physiological saline). After 3 hours the rats are killed, the air pouches are lavaged with physiological saline, and the specific radioimmunoassay described above is used to assay LTB₄ in the washings. This test provides an indication of inhibitory effects against 5-LO in an inflammatory milieu.

5-LO [2] = assay: Test c): in vivo zymosan-induced LTB₄ liberation in subcutaneous air pouch; details: oral, male rats, 3 hours
Source text: As stated previously, the compounds of the formula I are inhibitors of the enzyme 5-LO. […] J. Pharmacol. 1985, 84, 34P) which involve the use of a protein-LTB₄ conjugate produced using the procedure of Young et alia (Prostaglandins, 1983, 26(4), 605-613). The effects of a test compound on the enzyme cyclooxygenase (which is involved in the alternative metabolic pathway for arachidonic acid and gives rise to prostaglandins, thromboxanes and related metabolites) may be measured at the same time using the specific radioimmunoassay for thromboxane B₂(TxB₂) described by Carey and Forder (see above). This test provides an indication of the effects of a test compound against 5-LO and also cyclooxygenase in the presence of blood cells and proteins. It permits the selectivity of the inhibitory effect on 5-LO or cyclooxygenase to be assessed. • b) An ex vivo assay system, which is a variation of test a) above, involving administration to a group of rats of a test compound (usually orally as the suspension produced when a solution of the test compound in dimethylsulphoxide is added to carboxymethylcellulose), blood collection, heparinisation, challenge with A23187 and radioimmunoassay of LTB₄ and TxB₂. […]

| SMILES | pIC50 (5-LO [1]) | ED₅₀ versus LTB₄ in test (c) (5-LO [2]) |
| --- | --- | --- |
| COC1(c2cccc(OCc3ccc4ccccc4c3)c2)CCN(C)C1 (stereo not shown) [Example 1, 3-methoxy-1-methyl-3-[3-(naphth-2-ylmethoxy)phenyl]pyrrolidine] | 6.68 |  |
| C#CCN1CCC(OC)(c2cccc(OCc3ccc4ccccc4c3)c2)C1 (stereo not shown) [Example 4, 3-methoxy-3-[3-(naphth-2-ylmethoxy)phenyl]-1-(prop-2-ynyl)pyrrolidine] | 7.22 |  |
| CCn1c(=O)ccc2cc(COc3cccc(C4(OC)CCN(CC(F)(F)F)C4)c3)ccc21 (stereo not shown) [Example 5, 3-[3-(1-ethyl-2-oxo-1,2-dihydroquinolin-6-ylmethoxy)phenyl]-3-methoxy-1-(2,2,2-trifluoroethyl)pyrrolidine] | 7.05 |  |
| COC1(c2cc(F)cc(Sc3ccc4c(c3)CCC(=O)N4C)c2)CCN(CC(F)(F)F)C1 (stereo not shown) [Example 6, 3-[5-fluoro-3-(1-methyl-2-oxo-1,2,3,4-tetrahydroquinolin-6-ylthio)phenyl]-3-methoxy-1-(2,2,2-trifluoroethyl)pyrrolidine] | 7.52 | approximately 1.5 mg/kg |
| COC1(c2cc(F)cc(Sc3ccc(C(C)=NO)cc3)c2)CCN(CC(F)(F)F)C1 (stereo not shown) [Example 32, 3-{5-fluoro-3-[4-(1-hydroxyiminoethyl)phenylthio]phenyl}-3-methoxy-1-(2,2,2-trifluoroethyl)pyrrolidine] | 7.40 | approximately 0.5 mg/kg |
